For two compounds, IC50 results are on record in PMC5909954 (Toxicology, 2018).

One test addresses Complex I. The experiment in a line: immunocapture-based OXPHOS activity assay. Format: biochemical, Bos taurus.
The target of test [1] is Complex V (F1FO ATP synthase). The experiment in a line: immunocapture-based OXPHOS activity assay. It counts as biochemical, Bos taurus.

Each structure is given as a SMILES string.

For the compound `C/C(O)=C(\C#N)C(=O)Nc1ccc(C(F)(F)F)cc1` [A77 1726, 2-Cyano-3-hydroxy-N-[4-(trifluoromethyl)phenyl]-2-butenamide], the IC50 (commonly the concentration that inhibits the measured activity by half) at Complex I came to 229 µM; in test [1] it was 63.7 µM.
On the same counts, the results for `Cc1oncc1C(=O)Nc1ccc(C(F)(F)F)cc1` [leflunomide] are 200 µM and 35 µM.
